# Test system: VEGF-stimulated angiogenesis
# Assay: CAM assay of VEGF-stimulated angiogenesis: intravenous TM-601, comparison and combination with Avastin and Lucentis
# Type: in vivo, chick
# Conditions: for relative potency of inhibition of VEGF-stimulated angiogenesis, molar basis: TM-601, Avastin and Lucentis compared on a molar basis
# Method: The CAM assay was performed using two different methods, depending on the contract laboratory where it was performed. At one contract laboratory, fertilized chick eggs were incubated at 37° C. with 55% humidity. Ten days after fertilization, a small hole was punctured with a hypodermic needle in the area of the shell concealing the air sac. A second hole was punctured in the shell on the broadside of the egg directly over an avascular portion of the embryonic membrane. A false air sac was created beneath the second hold by the application of negative pressure to the first hole, which caused the membrane to separate from the shell. A window approximately 1.0 cm^2 in area was cut in the shell over the dropped CAM with the use of a small grinding wheel, allowing direct access to the underlying CAM. Filter disks were soaked in 3 mg/mL rtisone acetate and subsequently air dried under sterile conditions. […] Sterile filter disks with VEGF at 2 μg/mL were placed on the growing CAMs. […] CAMs were harvested on the 3rd day of stimulation. The CAM tissue directly beneath the filter disk was removed from the embryos and tissues were washed three times with PBS. Blood vessel branch points in the 5 m filter disk area were counted at 30× magnification as a quantitative indicator of vascular sprouting in response to the pro-angiogenic compounds. Each egg was analyzed by two different operators and the average reading was reported. The following equation was used to calculate the mean percent angiogenesis inhibition with VEGF-stimulation:
# At the second contract laboratory, the CAM assay was performed as follows. Fertilized chicken eggs were incubated at 37.5° C. in a humidified egg incubator with forced air circulation. […] On embryonic day 7, the CAM membranes were examined and quantitatively analyzed for new blood vessel formation after injection of dyed non-fat dry milk solution. The treatment effects on angiogenesis were evaluated by determining vascular density indexed (VDI) on CAMs only with viable chicken embryos. […]
Substance,"relative potency of inhibition of VEGF-stimulated angiogenesis, by weight of inhibitor (TM-601, Avastin and Lucentis compared on a mass basis)","relative potency of inhibition of VEGF-stimulated angiogenesis, molar basis"
ranabizumab [Lucentis],most potent,more effective than TM-601
bevacizumab [Avastin],,more effective than TM-601

# Source: patent US8470607B2, “Inhibition of angiogenesis” (Morphotek, Inc., priority 2008, dated 2013)
